The target in this assay is T1, Tie2 receptor tyrosine kinase (Homo sapiens, UniProt Q02763).
T1 construct: one can use natural cell lines or primary cells which are known to express the receptor of choice; endogenous in cells; host or cells: EA.hy926/B3 cells (HUVEC named as an alternative)
As to the kind of experiment: Cellular Tie2 autophosphorylation assay. It is filed as cell-based. To be noted: whole cells, e.g. Ang1 ligand stimulated EA.hy926/B3 cells; read-out: IC50 Inhibition of autophosphorylation of Tie2 receptor tyrosine kinase. The source says: The following assay can be used to measure the effects of the compounds of the present invention as inhibitors of Tie2 autophosphorylation in whole cells.
Cellular Tie2 Autophosphorylation Assay
This assay is based on measuring the ability of compounds to inhibit autophosphorylation of the Tie2 receptor which normally leads to the production of “activated” receptor that in turn initiates the particular signal transduction pathways associated with the receptor function.
Autophosphorylation can be achieved by a number of means. It is known that expression of recombinant kinase domains in baculoviral systems can lead to the production of phosphorylated and activated receptor. […]
Naturally if the ligand is available one can use natural cell lines or primary cells which are known to express the receptor of choice and simply stimulate with ligand to achieve ligand induced phosphorylation. The ability of compounds to inhibit autophosphorylation of the Tie2 receptor, which is expressed for example in EA.hy926/B3 cells (supplied by J. McLean/B. Tuchi, Univ. of N. Carolina at Chapel Hill, CB-4100, 300 Bynum Hall, Chapel Hill, N.C. 27599-41000, USA) or primary HUVEC (human umbilical vein endothelial cells—available from various commercial sources), can measured by this assay. […]

SMILES strings stand for the structures.

T1 sequence (Q02763 23-1124): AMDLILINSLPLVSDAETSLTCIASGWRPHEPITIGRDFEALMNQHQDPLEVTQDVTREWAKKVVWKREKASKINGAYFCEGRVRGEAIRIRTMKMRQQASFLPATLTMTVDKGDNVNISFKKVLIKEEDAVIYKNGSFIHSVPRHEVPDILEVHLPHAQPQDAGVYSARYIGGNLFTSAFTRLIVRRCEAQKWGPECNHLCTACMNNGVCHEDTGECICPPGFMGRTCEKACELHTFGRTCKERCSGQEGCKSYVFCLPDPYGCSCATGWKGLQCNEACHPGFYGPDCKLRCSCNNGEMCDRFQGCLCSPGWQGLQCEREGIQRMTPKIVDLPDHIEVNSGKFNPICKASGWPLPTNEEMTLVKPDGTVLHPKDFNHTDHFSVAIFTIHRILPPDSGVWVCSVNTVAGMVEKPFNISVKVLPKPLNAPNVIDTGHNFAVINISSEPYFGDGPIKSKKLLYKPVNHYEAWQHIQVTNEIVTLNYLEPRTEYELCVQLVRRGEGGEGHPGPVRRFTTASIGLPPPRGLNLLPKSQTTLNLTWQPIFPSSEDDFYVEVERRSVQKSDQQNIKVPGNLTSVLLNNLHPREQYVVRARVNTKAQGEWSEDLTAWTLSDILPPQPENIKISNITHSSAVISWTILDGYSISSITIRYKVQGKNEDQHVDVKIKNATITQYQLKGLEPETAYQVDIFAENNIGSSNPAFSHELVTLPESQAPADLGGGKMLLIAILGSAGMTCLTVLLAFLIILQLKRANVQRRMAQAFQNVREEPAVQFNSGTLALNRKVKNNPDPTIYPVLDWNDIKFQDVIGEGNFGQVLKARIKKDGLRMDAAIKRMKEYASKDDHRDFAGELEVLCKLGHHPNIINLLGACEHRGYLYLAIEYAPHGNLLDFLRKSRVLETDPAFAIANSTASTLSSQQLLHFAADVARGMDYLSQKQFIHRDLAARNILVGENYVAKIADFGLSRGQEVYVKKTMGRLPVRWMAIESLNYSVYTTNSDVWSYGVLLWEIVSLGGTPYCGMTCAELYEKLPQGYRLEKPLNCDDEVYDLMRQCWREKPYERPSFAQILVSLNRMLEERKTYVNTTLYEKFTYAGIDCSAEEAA

As for `Nc1ncc(C#Cc2ccc(C(=O)Nc3cc(C(F)(F)F)ccc3F)s2)cn1` [Example 1, 5-[(2-Aminopyrimidin-5-yl)ethynyl]-N-[2-fluoro-5-(trifluoromethyl)phenyl]thiophene-2-carboxamide], the half-maximal inhibitory concentration (IC50) (usually the concentration that inhibits the measured activity by half) was determined as 16 nM. As to `Nc1ncc(C#Cc2csc(C(=O)Nc3cc(C(F)(F)F)ccc3F)c2)cn1` [Example 2, 4-[(2-Aminopyrimidin-5-yl)ethynyl]-N-[2-fluoro-5-(trifluoromethyl)phenyl]thiophene-2-carboxamide], the IC50 was found to be 26 nM.

(Values after patent US20080194552A1, “Aminopyrimidine Derivatives With Tie2 Inhibiting Activity” (ASTRAZENECA AB, priority 2005, published 2008).)
